Key:
Format in all cases: in vivo
[1] = test system: sedge, umbrella (small-flower umbrella sedge Cyperus difformis); assay: Test B flooded paddy: sedge, umbrella; conditions: Flood, applied to paddy water at 2-leaf stage, visually evaluated after 13 to 15 days
How it was run: (§1)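 2-leaf plants; pots flooded 3 cm over soil; compound added to paddy water, depth kept constant. Greenhouse 13–15 d. Visual rating vs controls, 0–100 scale (100 = complete control); dash = no result.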

corn (Zea mays) = assay: Test A pre-/postemergence: corn
How it was run: (§2)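 Rating scale 0–100 (100 = complete control), visual, ~10 days after application in the greenhouse. Applications: preemergence directed soil spray; postemergence at 1–2 leaves.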

[2] = test system: wheat (Triticum aestivum); assay: Test A pre-/postemergence: wheat
How it was run: as §2

rice (Oryza sativa) = assay: Test B flooded paddy: rice; conditions: Flood, applied to paddy water at 2-leaf stage, visually evaluated after 13 to 15 days
How it was run: as §1

[3] = test system: foxtail, giant (giant foxtail, Setaria faberii); assay: Test A pre-/postemergence: foxtail, giant
How it was run: as §2

[4] = test system: barnyardgrass (Echinochloa crus-galli); assay: Test B flooded paddy: barnyardgrass; conditions: Flood, applied to paddy water at 2-leaf stage, visually evaluated after 13 to 15 days
How it was run: as §1

[5] = test system: morningglory (Ipomoea spp.); assay: Test A pre-/postemergence: morningglory
How it was run: as §2

[6] = test system: crabgrass, large (large crabgrass, Digitaria sanguinalis); assay: Test A pre-/postemergence: crabgrass, large
How it was run: as §2

[7] = test system: barnyardgrass (Echinochloa crus-galli); assay: Test A pre-/postemergence: barnyardgrass
How it was run: as §2

[8] = test system: velvetleaf (Abutilon theophrasti); assay: Test A pre-/postemergence: velvetleaf
How it was run: as §2

[9] = test system: pigweed (Amaranthus retroflexus); assay: Test A pre-/postemergence: pigweed
How it was run: as §2

[10] = test system: ducksalad (Heteranthera limosa); assay: Test B flooded paddy: ducksalad; conditions: Flood, applied to paddy water at 2-leaf stage, visually evaluated after 13 to 15 days
How it was run: as §1

[11] = Postemergence, 125 g ai/ha, 0 to 100 scale, 0 is no effect, 100 is complete control
[12] = Postemergence, 500 g ai/ha, 0 to 100 scale, 0 is no effect, 100 is complete control
[13] = Preemergence, 125 g ai/ha, 0 to 100 scale where 0 is no effect and 100 is complete control
[14] = Preemergence, 500 g ai/ha, 0 to 100 scale (0 no effect, 100 complete control)
[15] = Postemergence, 500 g ai/ha, visual rating on 0 to 100 scale (0 no effect, 100 complete control), approximately ten days
[16] = Preemergence, 125 g ai/ha, 0 to 100 scale (0 no effect, 100 complete control)
[17] = Preemergence, 500 g ai/ha, 0 to 100 scale, 0 is no effect, 100 is complete control

CCCOc1nn(-c2ccc(C(F)(F)F)cc2)nc1Cc1ccnc(C(F)(F)F)c1 [Compound 191]
Plant response rating, Sedge, Umbrella (0 to 100 scale, 0 is no effect, 100 is complete control) ([1]; 125 g ai/ha): 50 | Plant response rating, Corn (corn (Zea mays); [11]): 30 | Corn plant response rating (corn (Zea mays); [12]): 80 | Plant response rating, Corn (corn (Zea mays); [13]): 20 | Plant response rating, Corn (corn (Zea mays); [14]): 60 | Plant response rating, Wheat [2, 11]: 70 | Wheat plant response rating [2, 12]: 80 | Plant response rating, Wheat [2, 13]: 40 | Plant response rating, Wheat [2, 14]: 70 | Plant response rating, Rice (0 to 100 scale, 0 is no effect, 100 is complete control) (rice (Oryza sativa); 125 g ai/ha): 50 | Plant response rating, Foxtail, Giant [3, 11]: 90 | Foxtail, Giant plant response rating [3, 12]: 100 | Plant response rating, Foxtail, Giant [3, 13]: 100 | Plant response rating, Foxtail, Giant [3, 14]: 100 | Plant response rating, Barnyardgrass (0 to 100 scale, 0 is no effect, 100 is complete control) ([4]; 125 g ai/ha): 50 | Plant response rating, Morningglory [5, 11]: 100 | Morningglory plant response rating [5, 12]: 100 | Plant response rating, Morningglory [5, 13]: 20 | Plant response rating, Morningglory [5, 14]: 30 | Plant response rating, Crabgrass, Large [6, 11]: 90 | Crabgrass, Large plant response rating [6, 12]: 100 | Plant response rating, Crabgrass, Large [6, 13]: 100 | Plant response rating, Crabgrass, Large [6, 14]: 100 | Plant response rating, Barnyardgrass [7, 11]: 60 | Barnyardgrass plant response rating [7, 12]: 100 | Plant response rating, Barnyardgrass [7, 13]: 90 | Plant response rating, Barnyardgrass [7, 14]: 100 | Plant response rating, Velvetleaf [8, 11]: 80 | Velvetleaf plant response rating [8, 12]: 100 | Plant response rating, Velvetleaf [8, 13]: 30 | Plant response rating, Velvetleaf [8, 14]: 80 | Plant response rating, Pigweed [9, 11]: 100 | Pigweed plant response rating [9, 12]: 100 | Plant response rating, Pigweed [9, 13]: 100 | Plant response rating, Pigweed [9, 14]: 100 | Plant response rating, Ducksalad (0 to 100 scale, 0 is no effect, 100 is complete control) ([10]; 125 g ai/ha): 20

Cc1nn(-c2ccc(F)c(F)c2)nc1Cc1ccnc(C(F)(F)F)c1 [Compound 55]
Plant response rating, Sedge, Umbrella (0 to 100 scale, 0 is no effect, 100 is complete control) ([1]; 250 g ai/ha): 100 | Corn plant response rating (corn (Zea mays); [11]): 20 | Corn plant response rating (corn (Zea mays); [15]): 50 | Plant response rating, Corn (corn (Zea mays); [16]): 20 | Plant response rating, Corn (corn (Zea mays); [17]): 50 | Wheat plant response rating [2, 11]: 20 | Wheat plant response rating [2, 15]: 40 | Plant response rating, Wheat [2, 16]: 10 | Plant response rating, Wheat [2, 17]: 40 | Plant response rating, Rice (0 to 100 scale, 0 is no effect, 100 is complete control) (rice (Oryza sativa); 250 g ai/ha): 60 | Foxtail, Giant plant response rating [3, 11]: 90 | Foxtail, Giant plant response rating [3, 15]: 90 | Plant response rating, Foxtail, Giant [3, 16]: 100 | Plant response rating, Foxtail, Giant [3, 17]: 100 | Plant response rating, Barnyardgrass (0 to 100 scale, 0 is no effect, 100 is complete control) ([4]; 250 g ai/ha): 70 | Plant response rating, Morningglory [5, 16]: 50 | Plant response rating, Morningglory [5, 17]: 80 | Crabgrass, Large plant response rating [6, 11]: 80 | Crabgrass, Large plant response rating [6, 15]: 90 | Plant response rating, Crabgrass, Large [6, 16]: 100 | Plant response rating, Crabgrass, Large [6, 17]: 100 | Barnyardgrass plant response rating [7, 11]: 90 | Barnyardgrass plant response rating [7, 15]: 90 | Plant response rating, Barnyardgrass [7, 16]: 90 | Plant response rating, Barnyardgrass [7, 17]: 100 | Velvetleaf plant response rating [8, 11]: 100 | Velvetleaf plant response rating [8, 15]: 100 | Plant response rating, Velvetleaf [8, 16]: 40 | Plant response rating, Velvetleaf [8, 17]: 70 | Pigweed plant response rating [9, 11]: 100 | Pigweed plant response rating [9, 15]: 100 | Plant response rating, Pigweed [9, 16]: 100 | Plant response rating, Pigweed [9, 17]: 100 | Plant response rating, Ducksalad (0 to 100 scale, 0 is no effect, 100 is complete control) ([10]; 250 g ai/ha): 100

CCOc1nn(-c2ccc(F)cc2F)nc1Cc1ccnc(C(F)(F)F)c1 [Compound 190]
Plant response rating, Sedge, Umbrella (0 to 100 scale, 0 is no effect, 100 is complete control) ([1]; 125 g ai/ha): 95 | Plant response rating, Corn (corn (Zea mays); [11]): 60 | Corn plant response rating (corn (Zea mays); [12]): 90 | Plant response rating, Corn (corn (Zea mays); [13]): 30 | Plant response rating, Corn (corn (Zea mays); [14]): 90 | Plant response rating, Wheat [2, 11]: 70 | Wheat plant response rating [2, 12]: 100 | Plant response rating, Wheat [2, 13]: 60 | Plant response rating, Wheat [2, 14]: 80 | Plant response rating, Rice (0 to 100 scale, 0 is no effect, 100 is complete control) (rice (Oryza sativa); 125 g ai/ha): 50 | Plant response rating, Foxtail, Giant [3, 11]: 100 | Foxtail, Giant plant response rating [3, 12]: 100 | Plant response rating, Foxtail, Giant [3, 13]: 100 | Plant response rating, Foxtail, Giant [3, 14]: 100 | Plant response rating, Barnyardgrass (0 to 100 scale, 0 is no effect, 100 is complete control) ([4]; 125 g ai/ha): 70 | Plant response rating, Morningglory [5, 11]: 100 | Morningglory plant response rating [5, 12]: 100 | Plant response rating, Morningglory [5, 13]: 80 | Plant response rating, Morningglory [5, 14]: 80 | Plant response rating, Crabgrass, Large [6, 11]: 100 | Crabgrass, Large plant response rating [6, 12]: 100 | Plant response rating, Crabgrass, Large [6, 13]: 100 | Plant response rating, Crabgrass, Large [6, 14]: 100 | Plant response rating, Barnyardgrass [7, 11]: 100 | Barnyardgrass plant response rating [7, 12]: 100 | Plant response rating, Barnyardgrass [7, 13]: 100 | Plant response rating, Barnyardgrass [7, 14]: 100 | Plant response rating, Velvetleaf [8, 11]: 100 | Velvetleaf plant response rating [8, 12]: 100 | Plant response rating, Velvetleaf [8, 13]: 40 | Plant response rating, Velvetleaf [8, 14]: 100 | Plant response rating, Pigweed [9, 11]: 100 | Pigweed plant response rating [9, 12]: 100 | Plant response rating, Pigweed [9, 13]: 100 | Plant response rating, Pigweed [9, 14]: 100 | Plant response rating, Ducksalad (0 to 100 scale, 0 is no effect, 100 is complete control) ([10]; 125 g ai/ha): 70

— patent publication US9302999B2, “Substituted triazoles as herbicides” (E. I. DU PONT DE NEMOURS AND COMPANY, priority 2012, dated 2016)
